Data reported in patent US12281122B1, “PI3K inhibitors” (Cogent Biosciences, Inc., priority 2023, dated 2025).
Each block holds one compound with its values, some of them ahead of it.

What was measured:
[1] = tested on: SKBR3 (PI3Kα-Wild Type) cell line; assay: HTRF phospho-AKT(S473) cell assay in SKBR3 cells; assay type: cell-based, human; details: Homo sapiens, SK-BR-3, 2 hours compound incubation, PDGF-BB stimulated
Summary of the method: (§1)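 Cells plated overnight (T47D in RPMI/10% FBS/0.2 units/mL insulin; SKBR3 in McCoy's 5A/10% FBS), then given 12-point 1:3 compound series (top 5 μM T47D, 10 μM SKBR3; ≤0.5% DMSO) for 2 h at 37° C. SKBR3 stimulated with 70 ng/ml PDGF-BB for final 15 min. Lysate pAKT(S473) by HTRF; IC50 calculated.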

[2] = tested on: T47D (PI3Kα-H1047R) cell line; assay: HTRF phospho-AKT(S473) cell assay in T47D cells; assay type: cell-based, human; details: Homo sapiens, 2 hours compound incubation
Summary of the method: as §1

[3] = HTRF phospho-AKT(S473), SKBR3 (PI3Kα-Wild Type) cells
[4] = HTRF phospho-AKT(S473), T47D (PI3Kα-H1047R) cells
[5] = SKBR3 (PI3Kα-Wild Type) cells, HTRF phospho-AKT(S473)
[6] = T47D (PI3Kα-H1047R) cells, HTRF phospho-AKT(S473)
[7] = SKBR3 (PI3Kα-Wild Type) cell line, phospho-AKT(S473) HTRF
[8] = T47D (PI3Kα-H1047R) cell line, phospho-AKT(S473) HTRF

IC50 [1, 3]: 1000 to 5000 nM | IC50 [2, 4]: < 250 nM
SMILES: Cc1cc([C@@H](C)Nc2ccc(Cl)nc2C(=O)NS(C)(=O)=O)c2nc([C@H]3[C@@H]4CN(c5cnc(C)nc5)C[C@@H]43)n(C)c(=O)c2c1 [Compound 820, 6-chloro-3-(((R)-1-(3,6-dimethyl-2-((1R,5S,6r)-3-(2-methylpyrimidin-5-yl)-3-azabicyclo[3.1.0]hexan-6-yl)-4-oxo-3,4-dihydroquinazolin-8-yl)ethyl)amino)-N-(methylsulfonyl) picolinamide]

IC50 [1, 7]: 1000 to 5000 nM | IC50 [2, 8]: < 250 nM
SMILES: Cc1cc([C@@H](C)Nc2ccc(Cl)nc2C(=O)NS(C)(=O)=O)c2nc(-c3ccc4nn(C)c(C)c4c3)n(C)c(=O)c2c1 [Compound 842, (R)-6-chloro-3-((1-(2-(2,3-dimethyl-2H-indazol-5-yl)-3,6-dimethyl-4-oxo-3,4-dihydroquinazolin-8-yl)ethyl)amino)-N-(methylsulfonyl) picolinamide]

IC50 [1, 3]: ≥ 5000 nM | IC50 [2, 4]: 250 to 500 nM
SMILES: COc1cc(C2CCN(c3nc4c([C@@H](C)Nc5ccc(Cl)nc5C(=O)NS(C)(=O)=O)cc(C)cc4c(=O)n3C)CC2)ccn1 [Compound 640, (R)-6-chloro-3-((1-(2-(4-(2-methoxypyridin-4-yl)piperidin-1-yl)-3,6-dimethyl-4-oxo-3,4-dihydroquinazolin-8-yl)ethyl)amino)-N-(methylsulfonyl) picolinamide]

IC50 [1, 3]: 1000 to 5000 nM | IC50 [2, 4]: 250 to 500 nM
SMILES: Cc1cc([C@@H](C)Nc2ccc(Cl)nc2C(=O)NS(C)(=O)=O)c2nc(N3CCC[C@H](c4cnc(C)c(C#N)c4)C3)n(C)c(=O)c2c1 (relative stereo) [Compound 615, 6-chloro-3-(((R)-1-(2-((R*)-3-(5-cyano-6-methylpyridin-3-yl)piperidin-1-yl)-3,6-dimethyl-4-oxo-3,4-dihydroquinazolin-8-yl)ethyl)amino)-N-(methylsulfonyl) picolinamide]

IC50 [1, 7]: ≥ 5000 nM | IC50 [2, 8]: 250 to 500 nM
SMILES: COc1nc2cc(-c3nc4c([C@@H](C)Nc5ccc(Cl)nc5C(=O)NS(C)(=O)=O)cc(C)cc4c(=O)n3C)ccc2n1C [Compound 849, (R)-6-chloro-3-((1-(2-(2-methoxy-1-methyl-1H-benzo[d]imidazol-5-yl)-3,6-dimethyl-4-oxo-3,4-dihydroquinazolin-8-yl)ethyl)amino)-N-(methylsulfonyl) picolinamide]

IC50 [1, 3]: 1000 to 5000 nM | IC50 [2, 4]: 250 to 500 nM
SMILES: Cc1cc([C@@H](C)Nc2ccc(Cl)nc2C(=O)NS(C)(=O)=O)c2nc(N3C[C@@H]4C(c5ccnc(C)c5F)[C@@H]4C3)n(C)c(=O)c2c1 (stereo partly drawn) [Compound 763, 6-chloro-3-(((1R)-1-(2-((1R,5S)-6-(3-fluoro-2-methylpyridin-4-yl)-3-azabicyclo[3.1.0]hexan-3-yl)-3,6-dimethyl-4-oxo-3,4-dihydroquinazolin-8-yl)ethyl)amino)-N-(methylsulfonyl) picolinamide]

IC50 [1, 3]: ≥ 5000 nM | IC50 [2, 4]: 500 to 1000 nM
SMILES: Cc1cc([C@@H](C)Nc2ccc(Cl)nc2C(=O)NS(C)(=O)=O)c2nc(N3C[C@H]4C[C@@H]3CN4c3cnc(C)c(F)c3)n(C)c(=O)c2c1 [Compound 664, 6-chloro-3-(((R)-1-(2-((1R,4R)-5-(5-fluoro-6-methylpyridin-3-yl)-2,5-diazabicyclo [2.2.1]heptan-2-yl)-3,6-dimethyl-4-oxo-3,4-dihydroquinazolin-8-yl)ethyl)amino)-N-(methylsulfonyl) picolinamide]

IC50 [1, 3]: 1000 to 5000 nM | IC50 [2, 4]: < 250 nM
SMILES: CCn1c(-c2ccc3nn(C)cc3c2)nc2c([C@@H](C)Nc3ccc(Cl)nc3C(=O)NS(C)(=O)=O)cc(C)cc2c1=O [Compound 812, (R)-6-chloro-3-((1-(3-ethyl-6-methyl-2-(2-methyl-2H-indazol-5-yl)-4-oxo-3,4-dihydroquinazolin-8-yl)ethyl)amino)-N-(methylsulfonyl) picolinamide]

More lines, now with the values behind:

SMILES: COc1ncc(N2CCN(c3nc4c([C@@H](C)Nc5ccc(Cl)nc5C(=O)NS(C)(=O)=O)cc(C)cc4c(=O)n3C)CC2)cn1 [Compound 555, (R)-6-chloro-3-((1-(2-(4-(2-methoxypyrimidin-5-yl)piperazin-1-yl)-3,6-dimethyl-4-oxo-3,4-dihydroquinazolin-8-yl)ethyl)amino)-N-(methylsulfonyl) picolinamide]
IC50 [1, 3]: 1000 to 5000 nM | IC50 [2, 4]: < 250 nM

SMILES: Cc1cc([C@@H](C)Nc2ccc(Cl)nc2C(=O)NS(C)(=O)=O)c2nc(N3C[C@H]4C[C@@H]3CN4c3ccccn3)n(C)c(=O)c2c1 [Compound 603, 6-chloro-3-(((R)-1-(3,6-dimethyl-4-oxo-2-((1R,4R)-5-(pyridin-2-yl)-2,5-diazabicyclo [2.2.1]heptan-2-yl)-3,4-dihydroquinazolin-8-yl)ethyl)amino)-N-(methylsulfonyl) picolinamide]
IC50 [1, 3]: ≥ 5000 nM | IC50 [2, 4]: 500 to 1000 nM

SMILES: Cc1cc([C@@H](C)Nc2ccc(Cl)nc2C(=O)NS(C)(=O)=O)c2nc(N3CCN(c4nc(C)ncc4F)CC3)n(C)c(=O)c2c1 [Compound 575, (R)-6-chloro-3-((1-(2-(4-(5-fluoro-2-methylpyrimidin-4-yl)piperazin-1-yl)-3,6-dimethyl-4-oxo-3,4-dihydroquinazolin-8-yl)ethyl)amino)-N-(methylsulfonyl) picolinamide]
IC50 [1, 3]: 1000 to 5000 nM | IC50 [2, 4]: < 250 nM

SMILES: COc1cc(N2CCN(c3nc4c([C@@H](C)Nc5ccc(Cl)nc5C(=O)NS(C)(=O)=O)cc(C)cc4c(=O)n3C)CC2)ccn1 [Compound 554, (R)-6-chloro-3-((1-(2-(4-(2-methoxypyridin-4-yl)piperazin-1-yl)-3,6-dimethyl-4-oxo-3,4-dihydroquinazolin-8-yl)ethyl)amino)-N-(methylsulfonyl) picolinamide]
IC50 [1, 3]: 1000 to 5000 nM | IC50 [2, 4]: < 250 nM

SMILES: Cc1cc([C@@H](C)Nc2ccc(Cl)nc2C(=O)NS(C)(=O)=O)c2nc(N3C[C@@H]4[C@H](C3)[C@H]4c3cccnc3C)n(C)c(=O)c2c1 [Compound 385, 6-chloro-3-(((R)-1-(3,6-dimethyl-2-((1R,5S,6S)-6-(2-methylpyridin-3-yl)-3-azabicyclo[3.1.0]hexan-3-yl)-4-oxo-3,4-dihydroquinazolin-8-yl)ethyl)amino)-N-(methylsulfonyl) picolinamide]
IC50 [1, 5]: 1000 to 5000 nM | IC50 [2, 6]: < 250 nM

SMILES: Cc1cc([C@@H](C)Nc2ccc(Cl)nc2C(=O)NS(C)(=O)=O)c2nc(N3Cc4cn(C)nc4C3)n(C)c(=O)c2c1 [Compound 396, (R)-6-chloro-3-((1-(3,6-dimethyl-2-(2-methyl-2,6-dihydropyrrolo[3,4-c]pyrazol-5(4H)-yl)-4-oxo-3,4-dihydroquinazolin-8-yl)ethyl)amino)-N-(methylsulfonyl) picolinamide]
IC50 [1, 5]: 1000 to 5000 nM | IC50 [2, 6]: < 250 nM

SMILES: Cc1cc([C@@H](C)Nc2ccc(Cl)nc2C(=O)NS(C)(=O)=O)c2nc(-c3ccc(N4CCC(O)CC4)nc3)n(C)c(=O)c2c1 [Compound 177, (R)-6-chloro-3-((1-(2-(6-(4-hydroxypiperidin-1-yl)pyridin-3-yl)-3,6-dimethyl-4-oxo-3,4-dihydroquinazolin-8-yl)ethyl)amino)-N-(methylsulfonyl) picolinamide]
IC50 [1, 5]: 1000 to 5000 nM | IC50 [2, 6]: < 250 nM

SMILES: Cc1cc([C@@H](C)Nc2ccc(Cl)nc2C(=O)NS(C)(=O)=O)c2nc(N3CCC(Nc4cnn(C)c4)CC3)n(C)c(=O)c2c1 [Compound 291, (R)-6-chloro-3-((1-(3,6-dimethyl-2-(4-((1-methyl-1H-pyrazol-4-yl)amino)piperidin-1-yl)-4-oxo-3,4-dihydroquinazolin-8-yl)ethyl)amino)-N-(methylsulfonyl) picolinamide]
IC50 [1, 5]: 1000 to 5000 nM | IC50 [2, 6]: < 250 nM

SMILES: Cc1cc([C@@H](C)Nc2ccc(Cl)nc2C(=O)NS(C)(=O)=O)c2nc(-c3ccc(N4CC5CCC(C4)C5O)nc3)n(C)c(=O)c2c1 (stereo partly drawn) [Compound 305, 6-chloro-3-(((1R)-1-(2-(6-(8-hydroxy-3-azabicyclo[3.2.1]octan-3-yl)pyridin-3-yl)-3,6-dimethyl-4-oxo-3,4-dihydroquinazolin-8-yl)ethyl)amino)-N-(methylsulfonyl) picolinamide]
IC50 [1, 5]: ≥ 5000 nM | IC50 [2, 6]: < 250 nM

SMILES: Cc1cc([C@@H](C)Nc2ccc(Cl)nc2C(=O)NS(C)(=O)=O)c2nc(N3CCc4nocc4C3)n(C)c(=O)c2c1 [Compound 332, (R)-6-chloro-3-((1-(2-(6,7-dihydroisoxazolo[4,3-c]pyridin-5(4H)-yl)-3,6-dimethyl-4-oxo-3,4-dihydroquinazolin-8-yl)ethyl)amino)-N-(methylsulfonyl) picolinamide]
IC50 [1, 5]: 1000 to 5000 nM | IC50 [2, 6]: < 250 nM

SMILES: Cc1cc([C@@H](C)Nc2ccc(Cl)nc2C(=O)NS(C)(=O)=O)c2nc(N3CCN(c4ccn(C)n4)CC3)n(C)c(=O)c2c1 [Compound 187, (R)-6-chloro-3-((1-(3,6-dimethyl-2-(4-(1-methyl-1H-pyrazol-3-yl)piperazin-1-yl)-4-oxo-3,4-dihydroquinazolin-8-yl)ethyl)amino)-N-(methylsulfonyl) picolinamide]
IC50 [1, 5]: 1000 to 5000 nM | IC50 [2, 6]: < 250 nM

SMILES: Cc1cc([C@@H](C)Nc2ccc(Cl)nc2C(=O)NS(C)(=O)=O)c2nc(N3CCC(c4nn(C)c(C)c4F)CC3)n(C)c(=O)c2c1 [Compound 421, (R)-6-chloro-3-((1-(2-(4-(4-fluoro-1,5-dimethyl-1H-pyrazol-3-yl)piperidin-1-yl)-3,6-dimethyl-4-oxo-3,4-dihydroquinazolin-8-yl)ethyl)amino)-N-(methylsulfonyl) picolinamide]
IC50 [1, 5]: ≥ 5000 nM | IC50 [2, 6]: 250 to 500 nM
